Assay results from patent US9150545B2, “Carboxamide compounds and their use as calpain inhibitors V” (ABBVIE DEUTSCHLAND GMBH & CO. KG, priority 2012, dated 2015).

Target: T1, calpain-I isolated from human erythrocytes (Homo sapiens, UniProt P07384)
T1 construct: calpain-I—isolated from human erythrocytes (Calbiochem #208713); purchased Calbiochem 208713; host or cells: human erythrocytes (native tissue isolate)
T1 sequence (P07384 1-714): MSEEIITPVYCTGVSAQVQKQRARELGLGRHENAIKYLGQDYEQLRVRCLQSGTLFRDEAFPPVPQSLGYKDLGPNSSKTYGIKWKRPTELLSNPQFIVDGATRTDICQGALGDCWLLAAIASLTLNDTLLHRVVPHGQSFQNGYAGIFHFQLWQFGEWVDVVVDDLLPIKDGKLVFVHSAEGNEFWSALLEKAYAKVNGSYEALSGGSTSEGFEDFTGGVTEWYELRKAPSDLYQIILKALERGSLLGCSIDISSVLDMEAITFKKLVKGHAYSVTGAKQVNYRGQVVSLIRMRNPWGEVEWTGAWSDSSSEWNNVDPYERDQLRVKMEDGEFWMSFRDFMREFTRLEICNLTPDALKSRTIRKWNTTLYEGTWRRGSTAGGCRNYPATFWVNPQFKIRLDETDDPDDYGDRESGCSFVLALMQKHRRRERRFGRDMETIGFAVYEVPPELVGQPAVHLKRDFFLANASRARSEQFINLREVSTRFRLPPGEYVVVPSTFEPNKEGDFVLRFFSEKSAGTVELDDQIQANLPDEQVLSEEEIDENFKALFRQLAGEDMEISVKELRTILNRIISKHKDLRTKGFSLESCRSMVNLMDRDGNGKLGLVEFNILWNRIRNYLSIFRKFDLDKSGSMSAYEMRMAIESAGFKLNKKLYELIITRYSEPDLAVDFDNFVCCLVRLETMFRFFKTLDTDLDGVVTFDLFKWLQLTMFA
T1 sequence (P04632 1-268 partner): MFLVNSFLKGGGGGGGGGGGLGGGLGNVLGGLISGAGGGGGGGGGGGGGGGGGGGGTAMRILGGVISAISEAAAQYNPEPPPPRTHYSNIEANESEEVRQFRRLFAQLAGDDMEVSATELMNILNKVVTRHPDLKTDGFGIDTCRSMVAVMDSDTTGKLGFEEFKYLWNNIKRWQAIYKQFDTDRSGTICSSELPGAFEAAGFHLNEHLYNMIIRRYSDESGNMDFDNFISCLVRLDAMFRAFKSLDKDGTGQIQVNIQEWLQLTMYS
Assay: Calpain I kinetic fluorescence enzyme inhibition assay
Type: biochemical
Conditions: apparent Ki from IC50 by Cheng-Prussoff
Method: Testing for blockade of the corresponding enzymic activities was carried out by means of kinetic fluorescence assays (excitation 390 nm, emission 460 nm).
Apparent Ki values were calculated from the experimentally determined IC50 values by the Cheng-Prussoff relation assuming a reversible competitive enzyme inhibition.
20 nM calpain-I—isolated from human erythrocytes (Calbiochem #208713), 100 μM Suc-Leu-Tyr-AMC (Bachem #I-1355) as substrate in buffer with 62 mM imidazole, 0.3 mM CaCl2, 0.10% CHAPS, 0.05% BSA, 1 mM DTT at pH 7.3 and room temperature.

SMILES: O=C(NC1CC1)C(=O)C(Cc1ccccc1)NC(=O)c1cccnc1-n1ccc(CN2Cc3ccccc3C2)n1 (stereo not shown) [Example C2, reference compound]
- Ki: 800 to 1000 nM
